{
  "source": "patent US7135292B2",
  "about": "“Analysis and modification of gene expression in marine invertebrate cells” (Harbor Branch Oceanographic Institution, Inc., priority 2002, dated 2006)",
  "type_in_all_cases": "cell-based",
  "key": {"[1]": {"tested_on": "TIB-155 murine lymphocytes", "experiment": "Microarray analysis of gene expression, PHA-treated vs untreated murine lymphocytes", "conditions": "significant regulation, opposite to sponge cells", "procedure": "Murine Cells. Following the same experimental design as described for sponge cells, TIB-155 murine lymphocytes were cultured in the American Type Culture Collection-specified growth medium (RPMI 1640 with 0.05 mM 2-mercaptoethanol and 10% fetal bovine serum)."}, "[2]": {"tested_on": "Axinella corrugata cell cultures", "experiment": "Fluorescent assays of DNA and protein content in PHA-treated cultures", "conditions": "6 replicate comparisons, observed between 6 and 18 hours after treatment", "excerpt": "Sponge Cells. Cells were obtained from cryopreserved stocks at Harbor Branch Oceanographic Institution. All cells were derived from Axinella corrugata specimens collected in the waters of Florida, the Bahamas, and the Caribbean Sea, and were cryopreserved according to Pomponi et al. (Pomponi et al. 1997b supra). This sponge is relatively common and easy to collect, amenable to culture efforts, and produces the bioactive compound, stevensine, in vitro (Pomponi et al. 1997b supra). Enriched fractions of dissociated sponge cells were prepared, cryopreserved, and thawed according to previously published methods (Pomponi et al. 1997b supra). Cells were incubated at 22–25° C. in a growth medium consisting of a modified and supplemented commercial formulation (Willoughby and Pomponi 2000 supra). The length of the incubation period was based on my unpublished observation of elevated DNA and protein contents (9%, P=0.034, and 9%, P=0.038, respectively) in PHA-treated cultures, according to fluorescent assays of 6 replicate comparisons (Willoughby and Pomponi 2000 supra). Since the effects were observed between 6 and 18 hours after treatment, cells were cultured for 12-hour periods representing the center point of the period of observed changes. […]"}, "[3]": {"tested_on": "Axinella corrugata cell cultures", "experiment": "PCR verification of cdc10 and calcineurin B expression", "conditions": "two specimens", "procedure": "cDNA Preparation. cDNA was prepared as described in the array experiments, using unlabeled dCTP instead of the α-^33P dCTP. The final product was then diluted 25-fold in water, loaded onto a DNA recovery column (Zymo Research D4001) and washed according to the manufacturer's protocol followed by elution with four consecutive 25-μl aliquots of nuclease free water. The procedure was then repeated for 40-μl aliquots, with a final elution in two aliquots of 20 μl, to produce twice-washed cDNA. Final template solution was prepared from 10 μl of twice-washed cDNA by addition of 80 μl water and precipitation with 30 μl 5M ammonium acetate and 250 μl ethanol at −20° C. for 30 minutes. Samples were centrifuged at 4° C. for 30 minutes at 10,000×g. Pellets were washed twice with 70% ethanol and air-dried for 15 minutes prior to resuspension in 20 μl nuclease free water. For the -RT control reactions, RNA/DNA template amounts were calculated volumetrically, to correspond with the volume of final template used in each reaction. Since some loss of cDNA can be expected for each of the purification steps, the volume of template used in the -RT control reactions likely exceeds that used in the corresponding test reactions, resulting in overestimation of the possible contribution of DNA background signals, acting as a conservative control.\nPrimers. […]"}},
  "data": [
    {"substance": "phytohemagglutinin [PHA]", "values": [
      {"measurement": "COUP transcription factor regulation in murine cells", "setting": "[1]", "result": "higher signal in the PHA-treated murine cells"},
      {"measurement": "elevated DNA content in PHA-treated cultures", "setting": "[2]; P=0.034", "result": 9, "unit": "%"},
      {"measurement": "elevated protein content in PHA-treated cultures", "setting": "[2]; P=0.038", "result": 9, "unit": "%"},
      {"measurement": "cdc10 expression by PCR, PHA treated vs untreated", "setting": "[3]; FIG. 9A", "result": "up-regulation"},
      {"measurement": "calcineurin B expression by PCR, PHA treated vs untreated", "setting": "[3]; FIG. 9B", "result": "down-regulation"}
    ]}
  ]
}
